The assay has as its system A549 cells. Put plainly: EGF promoted colony formation assay of A549 single cells in DW device. It is filed as cell-based, human. The following applies: 200 ng mL-1 EGF in DMEM with 10% FBS, 7 days of culture, colonies >15 cells per culture-well, control medium 12.10%. The method, then:
In the EGF promoted colony formation assay, 200 μL of A549 cells at a concentration of 2.2-2.5×10^6 cells per mL was injected into the DW device manually and allowed to settle for 2 min, followed by injecting DMEM with 20% FBS and 1% antibiotics into the microchannel immediately to wash off excess cells in the channel at a flow rate of 600 μL min^−1 for 30 s. Subsequently, the inlet and outlet holes were sealed and the device was flipped upside down to obtain a single cell in a culture-well. The device was then placed in a humidified incubator at 37° C. with 5% CO2 as described above. After 1 day of culture, one of the device (for the control experiment) was injected with 300 μL of DMEM containing 10% FBS and 1% antibiotics to replace the original medium. […] Colonies with cell numbers higher than 15 cells in a culture-well were scored as cell colonies.
Due to its high single-cell capture efficiency and large space of culture wells, the DW device represents an attractive tool for in vitro single-cell colony formation assays in which the growth of individual cells is analyzed. […] The portability and transparency of the DW device allowed the cells in the device to be conveniently analyzed with a conventional microscope during cell culture experiments (FIGS. 7A-D). […]

Regarding “EGF: epithelial growth factor (EGF, PeproTech, USA) supplied in the culture medium at 200 ng mL-1”, the colony forming efficiency is 17.56%.

Source of the values: patent publication US20170145363A1, “MICROFLUIDIC DUAL-WELL DEVICE FOR HIGHTHROUGHPUT SINGLE-CELL CAPTURE AND CULTURE” (NATIONAL HEALTH RESEARCH INSTITUTES, priority 2015, published 2017).
